The test system of test [1] is S6 (Ser235/236) phosphorylation. Put plainly: Striatal pS6 (Ser235/236) immunofluorescence 1 h after single injection. It counts as in vivo, mouse. As to conditions: single injection 20 mg/kg i.p., individual mice. The protocol: Immunofluorescence was performed as described in Papale et al ([2016]). Briefly, 1 h after blocking in 5% normal goat serum, slices were incubated overnight at 4°C with the following primary antibodies: anti‐phospho (Ser10)‐acetylated (Lys14) histone H3 (1:1,000, Millipore), anti‐phospho‐S6 ribosomal protein (Ser235/236) (1:200, Cell Signaling Technology) anti‐phospho‐S6 ribosomal protein (Ser240/244) (1:200, Cell Signaling), cleaved caspase‐3 (1:200, Cell Signaling Technology), anti‐mutant Huntingtin (1:100, Developmental Studies Hybridoma Bank, University of Iowa, #MW8), and NeuN (1:1,000, Millipore). Corresponding secondary antibodies (Alexa Fluor 546 conjugated anti‐mouse (1:200, Thermo Fisher Scientific), Alexa Fluor 488 conjugated anti‐rabbit (1:500, Thermo Fisher Scientific) and Pacific Blue goat anti‐mouse (1:200, Thermo Fisher Scientific) were incubated at room temperature for 1 h. Sections stained for mutant Huntingtin were incubated with DAPI for 20 min. Sections were subsequently mounted with fluorescent mounting medium (DAKO). Single and double‐labeled images ([…]) were obtained at 40× magnification from the striatum using a laser scanning confocal microscope (Leica SP2) equipped with the corresponding lasers and appropriate filter sets to avoid the crosstalk between the fluorochromes.
In ex‐vivo and in‐vivo immunofluorescence experiments, the number of p‐S6 or p‐AcH3 immunoreactive neurons among NeuN‐positive neurons was counted in 2–3 consecutive striatal sections per mouse in four fields per section. Caspase 3‐positive cells were quantified among NeuN‐positive neurons in each slide and expressed as percentage (ratio between caspase‐3‐positive cells and total NeuN‐positive neurons) for each field acquired through the slide. The number of cells showing mutant Huntingtin inclusions were expressed as a percentage of mutant Huntingtin‐positive cells among DAPI‐positive cells.

Test [2] concerns ERK1/2 in HEK293 cells. Put plainly: ERK1/2 immunofluorescence (nuclear translocation) in HEK293 cells. Particulars: HEK293, siRNA 200 nM 24 h, then RB5 50 μM 15 min. It counts as cell-based. The protocol:
For Western blot and immunofluorescence analysis, 0.6 × 10^6 HEK293 cells were seeded in 6‐well plates in the presence of DMEM High Glucose GlutaMax (Thermo Fisher Scientific) containing 10% Foetal Bovine Serum (FBS, Thermo Fisher Scientific) and 100 U/ml penicillin/streptomycin (Thermo Fisher Scientific). For Western blot analysis to assess ERK1/2 and phospho‐ERK1/2 levels, cells were serum starved for 24 h and incubated with RB5 50 μM or FBS 20% for 15 min at 37°C. To assess JNK and phospho‐JNK levels, cells were incubated with RB5 50 μM or anisomycin 5 μM for 30 min at 37°C. For immunofluorescence analysis, cells were serum‐starved for 24 h and incubated with 50 μM RB5 or 20% FBS for 15 min at 37°C.
After rinsing in PBS, cells were fixed in 4% PFA and permeabilized with increasing concentrations of methanol (33, 50, 75, and 95% in PBS, 2 min each at room temperature), followed by 100% methanol for 10 min at −20°C. […] The mean fluorescence intensity in the nucleus was calculated automatically by Fiji‐ImageJ software in 8–10 fields per slide. […]

Test [3] relates to pERK1/2. The test can be described thus: pERK1/2 in dorsal striatum, MPTP model. It counts as in vivo, mouse. Here is the method:
Immunohistochemistry was performed as described in Papale et al ([2016]). Briefly, 1 h after blocking in 5% normal goat serum and 0.1% Triton X‐100 solution, free‐floating sections were incubated overnight at 4°C with one of the following primary antibodies: anti‐phospho‐p44/42 MAP kinase (Thr202/Tyr204) (1:200, Cell Signaling Technology #9101), anti‐phospho–Elk‐1 (Ser383) (1:100, Cell Signaling #9181), anti‐phospho‐Kv4.2 (Thr607)‐R (1:100, Santa Cruz sc22254‐R), anti‐phospho‐MSK‐1 (1:100 Cell Signaling Technology #9595), anti‐phospho‐MEK1/2 (Ser218/222) (1:100, sc‐7995 Santa Cruz Biotechnology), c‐Fos (1:100, sc‐52 Santa Cruz Biotechnology), tyrosine Hydroxylase (monoclonal 1:1,000, Sigma Aldrich, Italy) and anti‐DARPP‐32 (H3) (1:100, Santa Cruz Biotechnology, #sc‐271111) overnight at 4°C. […]
For in vivo immunohistochemistry experiments, images were acquired from the dorsal striatum using a Leica DM IRB microscope under a 20× objective. The number of p‐ERK, p‐MSK‐1, p‐ELK, p‐MEK‐1, p‐VG K+, c‐Fos, and DARPP‐32 positive cells was counted in 2–3 consecutive sections per mouse, bilaterally and averaged across the sections using the ImageJ software by a blind investigator to the condition. Estimation of nigral cell loss was assessed by quantifying the number of TH‐immunopositive neurons of the SNc in 360 μm‐spaced sections for each animal. […]

Values joined by “and” are separate entries in the source; they are usually repeats but may differ in a detail not shown here. Equal entries are not always repeated.

As to “GRKKRRQRRRPPQGGGGGEPRRTEGVGPGVPGEVEMVKGQPFDV [RB5, six D-amino acids, acetylated N-terminus]”, the “pS6 (Ser235/236) positive neurons in striatum” value in test [1] (ERK1+/+ (WT) mice) was “comparable in both genotypes”; in test [1] (ERK1-/- mice) it was “comparable in both genotypes”; in test [1] (1 h), “slightly reduced”. In addition, the “ERK1/2 nuclear translocation after KPNA2 downregulation” value in test [2] is reported as “did not further enhance ERK1/2 nuclear translocation”. In addition, the “pERK1/2 in dorsal striatum of MPTP-treated animals” value in test [3] (MPTP 20 mg/kg i.p. and RB5 20 mg/kg i.p. for 4 days) is given as “further enhanced”. The “pERK1/2 in dorsal striatum (Fig 5 panel i)” value in test [3] (MPTP model, individual animals) is 320.238 and 468.254 and 523.81 and 295.238 and 784.921 and 378.571 and 564.683 and 633.333 and 362.302 and 348.413 and 268.452 and 448.016 and 342.46 and 421.429.

For the origin of these results see paper PMC10630888, “Nuclear ERK1/2 signaling potentiation enhances neuroprotection and cognition via Importinα1/KPNA2” (EMBO Molecular Medicine, 2023).
